Laboratory results taken from article PMC9706920, “Aryloxypropanolamine targets amyloid aggregates and reverses Alzheimer-like phenotypes in Alzheimer mouse models” (Alzheimer's Research & Therapy, 2022).

Assays:
5XFAD mice = test: 6E10 immunohistochemical staining of amyloid plaques in 5XFAD mice after oral administration; assay type: in vivo, mouse; conditions: 50 mg/kg/day via drinking water, 5 weeks, 4.5-month-old female 5XFAD mice, vs vehicle
Procedure: To test the in vivo efficacy of YIAD001 and YIAD002, female 5XFAD mice (n = 25) and female wildtype mice (n = 7) were assessed at the age of 4.5 months. YIAD compounds were dissolved in DMSO and diluted in drinking water to a final concentration of 50 mg/kg/day (5% DMSO, 5% Tween) for oral administration. The three compounds, YIAD001, YIAD002, and YIAD003, were freely administered via drinking water to 4.5-month-old 5XFAD mice (n = 6 for each group) for 5 weeks. As a control, 5% DMSO, 5% Tween in drinking water was provided ad libitum to littermate 5XFAD mice (n = 7) and wildtype mice (n = 7) for 5 weeks.
After the administration period, the mice were deeply anaesthetized with 4% avertin through intraperitoneal injection and transcardially perfused with 0.9% saline. Subsequently, the mice were sacrificed for brain excision. Each collected brain was divided through the mid-sagittal section; the hippocampal and cortical regions were dissected from one half and stored at −80°C for subsequent brain lysates, while the other half was immersed in 4% paraformaldehyde (pH 7.4) for 24 h and 30% sucrose for 48 h at 4°C and subsequently deep-froze at −80°C for immunohistochemistry.
Coronal hippocampal sections of 5XFAD mice brains (35 μm) were cut with a Cryostat (Leica, CM1860) and mounted onto glass slides. Antigen retrieval was performed by submerging slides in 1% SDS and unspecific binding was blocked through incubation in 20% horse serum in PBS for 1 h at RT. Aβ deposits were visualized through immunolabeling by anti-6E10 antibody (1:200 in PBS with 5% horse serum, Biolegend 803003) and detection by fluorescent secondary antibody (1:200 in PBS, IgG Alexa 488). Brain sections were additionally stained with Hoechst 33342. Fluorescent images of the brain sections were taken on a Leica DM2500 fluorescence microscope. Amyloid plaques were quantified using Image-J software (NIH).

Aβ(1–40) aggregates = target: T1, Aβ(1–40) aggregates (Homo sapiens, UniProt P05067); test: ThT fluorescence Aβ(1–40) disaggregation assay; assay type: biochemical; conditions: 500 μM compound, Aβ(1–40) 25 μM pre-aggregated 3 days, co-incubated additional 3 days
T1 construct: Aβ(1–40), […]; […]; made in house; host or cells: chemical synthesis (Fmoc solid phase peptide synthesis)
Procedure: (§1) ThT fluorescence was used to assess the in vitro inhibition of Aβ(1–42) and disaggregation of Aβ(1–42), Aβ(1–40), Aβ(pE3-42), recombinant tau K18, and tau repeats R1, R2, R3, R4 by YIAD compounds. In house synthetic Aβ(1–42) was dissolved in DMSO (1 mM, 100% DMSO) and diluted to 20-fold in deionized water to make 50 μM Aβ(1–42) stocks (5% DMSO). YIAD compounds were first dissolved in DMSO (100 mM, 100% DMSO) and serially diluted with deionized water to make YIAD stocks with concentrations of 1, 10, 100, and 1000 μM (10% DMSO). For the Aβ(1–42) inhibition assay, monomeric Aβ(1–42) stocks and YIAD stocks were co-incubated at 37°C for 3 days. For Aβ(1–42) disaggregation assay, monomeric Aβ(1–42) stocks were preincubated at 37°C for three days to form Aβ(1–42) aggregates, and subsequently, YIAD stocks were added for an additional 3 days. For Aβ(1-40) disaggregation assays, Aβ(1–40) (50 μM, 5% DMSO) was preincubated at 37°C for 3 days to induce aggregation, and co-incubated with YIAD001 and YIAD002 for an additional 3 days. […] Prior to fluorescence intensity measurement, ThT solution (5 μM) was prepared by dissolving ThT, purchased from Sigma-Aldrich (MO, USA) in 50 mM glycine buffer (pH 8.5). To quantify the effect of inhibition and disaggregation, 25 μL of all samples and 75 μL of ThT solution were loaded into a half-area 96-well black plate in triplicate.

Aβ(1–42) aggregates [1] = target: T2, Aβ(1–42) aggregates (Homo sapiens, UniProt P05067); test: In vitro dot blot assay with oligomer-specific antibody A11; assay type: biochemical; conditions: Aβ(1–42) disaggregation samples, Fig. S1
T2 construct: made in house; host or cells: chemical synthesis (Fmoc solid phase peptide synthesis)
Procedure: To analyze total and oligomeric amyloid levels, protein samples (12 μg in 2 μL) and prepared in vitro disaggregation assay samples (2 μL) were directly blotted on nitrocellulose membranes. After blocking with 5% skim milk in TBS-T, the membranes were probed with anti-6E10 antibody (1:1,000, Biolegend 803003) and anti-A11 antibody (1:2000, Invitrogen AHB0052) at 4°C overnight. HRP-conjugated goat anti-mouse antibody (1:10,000, Bethyl Laboratories A90-116P) and anti-rabbit secondary antibody (1:10,000, Bethyl Laboratories A120-101P) were used for 6E10 and A11, respectively. Proteins were detected using an ECL kit (Thermo Fisher Scientific, USA). Membranes were washed with TBS-T in between steps, three times for 10 min.

Aβ(1–42) aggregates [2] = target: T2, Aβ(1–42) aggregates; test: ThT fluorescence Aβ(1–42) disaggregation assay; assay type: biochemical; conditions: for Decrease of fibrillar Aβ(1–42) aggregates (ThT fluorescence): Aβ(1–42) 25 μM pre-aggregated 37°C 3 days, compound added for additional 3 days, concentration of the printed value not stated; for EC50: pre-aggregated Aβ(1–42) 25 μM, 3 + 3 days, 37°C
Procedure: ThT fluorescence was used to assess the in vitro inhibition of Aβ(1–42) and disaggregation of Aβ(1–42), Aβ(1–40), Aβ(pE3-42), recombinant tau K18, and tau repeats R1, R2, R3, R4 by YIAD compounds. In house synthetic Aβ(1–42) was dissolved in DMSO (1 mM, 100% DMSO) and diluted to 20-fold in deionized water to make 50 μM Aβ(1–42) stocks (5% DMSO). YIAD compounds were first dissolved in DMSO (100 mM, 100% DMSO) and serially diluted with deionized water to make YIAD stocks with concentrations of 1, 10, 100, and 1000 μM (10% DMSO). For the Aβ(1–42) inhibition assay, monomeric Aβ(1–42) stocks and YIAD stocks were co-incubated at 37°C for 3 days. For Aβ(1–42) disaggregation assay, monomeric Aβ(1–42) stocks were preincubated at 37°C for three days to form Aβ(1–42) aggregates, and subsequently, YIAD stocks were added for an additional 3 days. For Aβ(1-40) disaggregation assays, Aβ(1–40) (50 μM, 5% DMSO) was preincubated at 37°C for 3 days to induce aggregation, and co-incubated with YIAD001 and YIAD002 for an additional 3 days. For Aβ(pE3-42) disaggregation assays, in house synthetic Aβ(pE3-42) (50 μM, 5% DMSO) was preincubated at 37°C for 1 day and co-incubated with YIAD002 for an additional 3 days. For tau K18 disaggregation assay, recombinant tau K18 fragments (35 μM) were dissolved in PBS with 0.1 mg/mL of heparin and 100 μM of DTT, then pre-aggregated at 37°C for 3 days. Then, YIAD stocks were added to aggregated K18 fragments for an additional 3 days. For tau repeat disaggregation assays, tau repeats (R1, R2, R3, R4) (35 μM) were dissolved in PBS with 0.1 mg/mL of heparin and 100 μM of DTT, then pre-aggregated at 37°C for 1 day. Then, YIAD002 was added to aggregated repeats for an additional 3 days. Prior to fluorescence intensity measurement, ThT solution (5 μM) was prepared by dissolving ThT, purchased from Sigma-Aldrich (MO, USA) in 50 mM glycine buffer (pH 8.5). To quantify the effect of inhibition and disaggregation, 25 μL of all samples and 75 μL of ThT solution were loaded into a half-area 96-well black plate in triplicate.

[3] = target: T3, recombinant tau K18 aggregates (Homo sapiens, UniProt P10636); test: ThT fluorescence tau K18 disaggregation assay; assay type: biochemical; conditions: K18 35 μM pre-aggregated 3 days, 50 and 500 μM compound for additional 3 days; concentration of the printed value not stated
T3 construct: Recombinant tau K18 fragments, […]; made in house; host or cells: Escherichia coli BL21 (DE3)
Procedure: as §1

T2 sequence (P05067 672-713 limits assumed): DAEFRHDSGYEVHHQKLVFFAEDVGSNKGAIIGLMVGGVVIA
T3 sequence (P10636 561-689): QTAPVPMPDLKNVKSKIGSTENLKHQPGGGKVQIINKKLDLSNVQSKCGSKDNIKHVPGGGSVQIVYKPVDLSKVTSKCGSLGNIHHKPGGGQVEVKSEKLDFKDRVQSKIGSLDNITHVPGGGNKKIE
T1 sequence (P05067 672-711): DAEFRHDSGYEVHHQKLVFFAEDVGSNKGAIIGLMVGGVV

Compound | Number of 6E10-stained plaques (5XFAD mice) | Plaque area (5XFAD mice) | Decrease of Aβ(1–40) aggregates (ThT fluorescence) (Aβ(1–40) aggregates) [%] | A11-detected amyloid oligomers, in vitro disaggregation (Aβ(1–42) aggregates [1]) | Decrease of fibrillar Aβ(1–42) aggregates (ThT fluorescence) (Aβ(1–42) aggregates [2]) [%] | EC50 (Aβ(1–42) aggregates [2]) [µM] | Reduction of K18 aggregates (disaggregation, ThT) [3] [%]
CCC(C)(C)c1ccc(OCC(O)CN2CCCC2)c(C(C)(C)CC)c1.Cl (stereo not shown) [YIAD002, 1-(3-(2,4-Di-tert-pentylphenoxy)-2-hydroxypropyl)pyrrolidin-1-ium chloride] | significantly reduced | significant decrease | 83.35 | dissociate Aβ(1–42) aggregates | 99.94 | 16.9 | 58.96
CCC(C)(C)c1ccc(OCC(O)CN2CCOCC2)c(C(C)(C)CC)c1.Cl (stereo not shown) [YIAD001, 4-(3-(2,4-Di-tert-pentylphenoxy)-2-hydroxypropyl)morpholin-4-ium chloride] | significantly reduced |  | 58.98 | dissociate Aβ(1–42) aggregates | 82.61 | 91.8 | 18.06
